# Laboratory results: patent US20240279205A1, “NOVEL BENZIMIDAZOLE DERIVATIVE” (Carna Biosciences, Inc., priority 2020, published 2024)
# Counter-ions that a name gives are not always drawn.
# Tests used:
# human STING (hSTING) = target: T1, human STING (hSTING) (Homo sapiens, UniProt Q86WV6); assay: Inhibition test of intracellular human STING (hSTING) pathway using SEAP reporter cells (HEK-Blue ISG), stimulation with Compound 3; format: cell-based; design: hSTING inhibitory activity: scale not given here; conditions: Compound 3 10 nM stimulation, 21 hours
# T1 construct: host or cells: HEK-Blue ISG cells (HEK293-derived SEAP reporter line)
# T1 sequence (Q86WV6 whole entry H232R): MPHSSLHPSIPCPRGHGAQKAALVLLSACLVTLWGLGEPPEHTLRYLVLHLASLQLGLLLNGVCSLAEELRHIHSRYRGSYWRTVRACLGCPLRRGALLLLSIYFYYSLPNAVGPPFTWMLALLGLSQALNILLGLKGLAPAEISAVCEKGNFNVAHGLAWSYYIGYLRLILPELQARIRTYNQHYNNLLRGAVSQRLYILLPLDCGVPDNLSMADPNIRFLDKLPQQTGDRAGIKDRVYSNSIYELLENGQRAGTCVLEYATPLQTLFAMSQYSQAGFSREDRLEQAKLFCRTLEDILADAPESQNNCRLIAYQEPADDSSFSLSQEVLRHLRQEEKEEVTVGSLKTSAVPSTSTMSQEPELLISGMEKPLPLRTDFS
# In short: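 IC50 derived by regressing inhibition rate against log compound concentration (0.1 to 10 μM final, added 1 h before agonist), with 0% and 100% set by wells without and with 10 nM Compound 3. SEAP colour reaction read after 21 h stimulation of HEK-Blue ISG reporter cells.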
# [1] = tested on: STING activation (IFN-β production in THP-1 cells); assay: Human IFN-β production inhibition test by cGAMP stimulation in THP-1 cells; format: cell-based; design: IFN-β bioinhibitory activity: scale not given here; conditions: 2'3'-cGAMP transfection, 18 hours, IFN-β ELISA; for IC50: Homo sapiens, read-out: IFN-β bioinhibitory activity
# Experimental: Human IFN-β production inhibition test by cGAMP stimulation
# The inhibitory activity of test compounds against STING activation was evaluated by measuring the amount of IFN-β produced when human monocytic cell line THP-1 cells were stimulated with the endogenous ligand cGAMP.
# After seeding THP-1 cells (ATCC) in a 96-well plate, PMA (Santa Cruz Biotechnology) adjusted to a concentration of 100 nM after addition was added, and incubated at 37° C. in a 5% CO2 incubator. It was cultured overnight (RPMI1640 medium containing 10% FBS, 50 U/mL penicillin/50 μg/mL streptomycin). A test compound solution adjusted to a final concentration of 0.001 to 1 μM was added to each well of this plate and cultured for 1 hour in a CO2 incubator (DMSO final concentration 0.1%). 0.12 μg/well of 2′3′-cGAMP (Invivogen, #tlrl-nacga23) was introduced into the cells by transfection using Lipofectamine2000 (Invitrogen) and cultured in a CO incubator for an additional 18 hours. After collecting the culture supernatant from each well, the amount of human IFN-β produced in the culture supernatant was measured by ELISA using R&D human IFN-β Duoset (R&D Systems).
# Assuming that the human IFN-β production amount of the test compound-free and cGAMP-added group is 100%, and the human IFN-β production amount of the test compound-free and cGAMP-free group is 0%, the IC50 value was determined by regression analysis of the inhibitory rate determined from the amount of human IFN-β production at each compound concentration and the concentration of the test compound (logarithm).
SMILES,hSTING inhibitory activity (human STING (hSTING)),IC50 [1] [µM],IC50 (human STING (hSTING); read-out: hSTING inhibitory activity) [µM],IFN-β bioinhibitory activity [1]
"Brc1ccc2[nH]cc(Nc3nc4cc(Oc5ccccc5)ccc4[nH]3)c2n1 [Example 12, N-(5-bromo-1H-pyrrolo[3,2-b]pyridin-3-yl)-5-phenoxy-1H-benzo[d]imidazol-2-amine]",* *,0.1 to 1,,
"CC#Cc1ccc2[nH]c(Nc3c[nH]c4ccc(Cl)nc34)nc2c1 [Embodiment 136, N-(5-Chloro-1H-pyrrolo[3,2-b]pyridin-3-yl)-5-(prop-1-yn-1-yl)-1H-benzo[d]imidazole-2-amine]",* *,0.1 to 1,,
"CCCCn1c(Nc2c[nH]c3ccc(Br)nc23)nc2ccc(Oc3ccccc3)cc21 [Embodiment 91, N-(5-bromo-1H-pyrrolo[3,2-b]pyridin-3-yl)-1-butyl-6-phenoxy-1H-benzo[d]imidazol-2-amine]",* * *,0.1 to 1,,
"Cc1ccnc2c(Nc3nc4cc(Oc5ccccc5)ccc4[nH]3)c[nH]c12 [Embodiment 52, N-(7-methyl-1H-pyrrolo[3,2-b]pyridin-3-yl)-5-phenoxy-1H-benzo[d]imidazol-2-amine]",* *,0.1 to 1,,
"Cn1c(Nc2c[nH]c3ccc(Cl)nc23)nc2c(N3CCCCC3)cccc21 [Embodiment 157, N-(5-chloro-1H-pyrrolo[3,2-b]pyridin-3-yl)-1-methyl-4-(piperidin-1-yl)-1H-benzo[d]imidazole-2-amine formate]",* *,0.1 to 1,,
"Cn1c(Nc2c[nH]c3ccc(Cl)nc23)nc2cc(Oc3ccccc3)ccc21 [Embodiment 45, N-(5-Chloro-1H-pyrrolo[3,2-b]pyridin-3-yl)-1-methyl-5-phenoxy-1H-benzo[d]imidazol-2-amine]",* *,0.1 to 1,,
"C=C(C)c1ccc2[nH]c(Nc3c[nH]c4ccc(Cl)nc34)nc2c1 [Embodiment 100, N-(5-chloro-1H-pyrrolo[3,2-b]pyridin-3-yl)-5-(prop-1-en-2-yl)-1H-benzo[d]imidazole-2-amine]",* * *,,,* * *
"Fc1cc(F)c2nc(Nc3c[nH]c4ccc(Cl)nc34)[nH]c2c1 [Embodiment 86, N-(5-Chloro-1H-pyrrolo[3,2-b]pyridin-3-yl)-4,6-difluoro-1H-benzo[d]imidazol-2-amine formate]",* *,≥ 1,,
"Clc1ccnc2c(Nc3nc4cc(Oc5ccccc5)ccc4[nH]3)c[nH]c12 [Embodiment 38, N-(7-chloro-1H-pyrrolo[3,2-b]pyridin-3-yl)-5-phenoxy-1H-benzo[d]imidazol-2-amine]",* *,≥ 1,,
"Clc1ccc2[nH]cc(Nc3nc4cc(Oc5ccccc5)ccc4[nH]3)c2n1 [Embodiment 35, N-(5-chloro-1H-pyrrolo[3,2-b]pyridin-3-yl)-5-phenoxy-1H-benzo[d]imidazol-2-amine]",* * *,0.1 to 1,,
"Clc1ccc2[nH]cc(Nc3nc4cc(I)ccc4[nH]3)c2n1 [Embodiment 124, N-(5-Chloro-1H-pyrrolo[3,2-b]pyridin-3-yl)-5-iodo-1H-benzo[d] imidazol-2-amine]",* *,,,* * *
"COCC#Cc1ccc2[nH]c(Nc3c[nH]c4ccc(Cl)nc34)nc2c1 [Embodiment 145, N-(5-Chloro-1H-pyrrolo[3,2-b]pyridin-3-yl)-5(3-methoxyprop-1-yn-1-yl)-1H-benzo[d]imidazole-2-amine]",* *,0.1 to 1,,

# Now from value to compound, other results behind:
hSTING inhibitory activity (human STING (hSTING)),IC50 [1] [µM],IC50 (human STING (hSTING); read-out: hSTING inhibitory activity) [µM],SMILES,IFN-β bioinhibitory activity [1]
* * *,,,"Cc1cc(C(F)(F)F)cc2nc(Nc3c[nH]c4ccc(Cl)cc34)n(C)c12 [Embodiment 248, N-(5-Chloro-1H-indol-3-yl)-1,7-dimethyl-5-(trifluoromethyl)-1H-benzo[d]imidazol-2-amine]",* *
* *,0.1 to 1,,"Cn1c(Nc2c[nH]c3ncc(Cl)cc23)nc2cc(C(F)(F)F)ccc21 [Embodiment 109, N-(5-Chloro-1H-pyrrolo[2,3-b]pyridin-3-yl)-1-methyl-5-(trifluoromethyl)-1H-benzo[d] imidazol-2-amine]",
* * *,,,"[2H]C([2H])([2H])n1c(Nc2c[nH]c3ccc(Cl)cc23)nc2cc(C(F)(F)F)ccc21 [Embodiment 221, N-(5-Chloro-1H-indol-3-yl)-1-(methyl-d3)-5-(trifluoromethyl)-1H-benzo[d]imidazol-2-mine]",* *
* * *,,,"Cn1c(Nc2c[nH]c3cc(F)c(F)cc23)nc2cc(C(F)(F)F)cc(F)c21 [Embodiment 261, N-(5,6-difluoro-1H-indol-3-yl)-7-fluoro-1-methyl-5-(trifluoromethyl)-1H-benzo[d]imidazol-2-amine]",* *
* *,,,"Clc1ccc2[nH]c(Nc3c[nH]c4ccc(Br)nc34)nc2c1 [Embodiment 32, N-(5-bromo-1H-pyrrolo[3,2-b]pyridin-3-yl)-5-chloro-1H-benzo[d]imidazol-2-amine]",* *
* * *,,,"C#CCn1c(Nc2c[nH]c3ccc(Cl)cc23)nc2cc(OC(F)(F)F)ccc21 [Embodiment 253, N-(5-Chloro-1H-indol-3-yl)-1-(prop-2-yn-1-yl)-5-(trifluoromethoxy)-1H-benzo[d]imidazole-2-amine]",* *
* * *,,,"Cn1c(Nc2c[nH]c3ccc(Cl)cc23)nc2cc(C(F)(F)F)ccc21 [Embodiment 56, N-(5-chloro-1H-indol-3-yl)-1-methyl-5-(trifluoromethyl)-1H-benzo[d]imidazol-2-amine]",* * *
* * *,,,"Cn1c(Nc2c[nH]c3ccc(Cl)cc23)nc2cc(C(F)(F)F)cc(Cl)c21 [Embodiment 249, 7-Chloro-N-(5-chloro-1H-indol-3-yl)-1-methyl-5-(trifluoromethyl)-1 H-benzo[d]imidazol-2-amine]",* *
* *,,,"Cn1c(Nc2c[nH]c3ccc(Cl)nc23)nc2cc(OC(F)(F)F)ccc21 [Embodiment 210, N-(5-Chloro-1H-pyrrolo[3,2-b]pyridin-3-yl)-1-methyl-5-(trifluoromethoxy)-1H-benzo[d] imidazol-2-amine]",* *
* * *,,,"Fc1cc(C(F)(F)F)cc2nc(Nc3c[nH]c4ccc(Cl)cc34)n(C3CC3)c12 [Embodiment 233, N-(5-Chloro-1H-indol-3-yl)-1-cyclopropyl-7-fluoro-5-(trifluoromethyl)-1H-benzo[d]imidazol-2-amine]",* *
* * *,,,"Cn1c(Nc2c[nH]c3ccc(Cl)cc23)nc2cc(C(F)(F)F)cc(F)c21 [Embodiment 225, N-(5-Chloro-1H-indol-3-yl)-7-fluoro-1-methyl-5-(trifluoromethyl)-1H-benzo[d]imidazol-2-amine]",* *
* * *,,,"C=CCn1c(Nc2c[nH]c3ccc(Cl)cc23)nc2cc(C(F)(F)F)ccc21 [Embodiment 213, 1-allyl-N-(5-chloro-1H-indol-3-yl)-5-(trifluoromethyl)-1H-benzo[d]imidazol-2-amine]",* *
* * *,,,"CCn1c(Nc2c[nH]c3ccc(Cl)cc23)nc2cc(C(F)(F)F)ccc21 [Embodiment 217, N-(5-Chloro-1H-indol-3-yl)-1-ethyl-5-(trifluoromethyl)-1H-benzo[d]imidazol-2-amine]",* *
,,1 to 10,"Cn1c(Nc2c[nH]c3ccc(Cl)nc23)nc2cc(Br)ccc21 [Embodiment 169, 5-bromo-N-(5-chloro-1H-pyrrolo [3,2-b]pyridin-3-yl)-1-methyl-1H-benzo[d]imidazol-2-amine]",* *
* *,0.1 to 1,,"CN(C)n1c(Nc2c[nH]c3ccc(Cl)cc23)nc2ccc(C(F)(F)F)cc21 [Embodiment 266, N2-(5-Chloro-1H-indol-3-yl)-N1, N1-dimethyl-6-(trifluoromethyl)-1H-benzo[d]imidazole-1,2-diamine]",
* *,,,"CC#CCn1c(Nc2c[nH]c3ccc(Cl)cc23)nc2cc(C(F)(F)F)ccc21 [Embodiment 228, 1-(But-2-yn-1-yl)-N-(5-rolo-1H-indol-3-yl)-5-(trifluoromethyl)-1H-benzo[d]imidazol-2-amine]",* *
